Test results taken from US7893286B2, “Method for the synthesis of phospholipid ethers” (Cellectar, Inc., priority 2007, dated 2011).

Tested on: A549 human non-small cell lung cancer xenografts
Experiment: Antitumor effect of single-dose ^125I-NM404 on tumor volume in SCID mice bearing A549 xenografts
Assay type: in vivo
Conditions: for effect on tumor volume compared to control animals: up to 10 weeks post-injection
Text: FIG. 2, illustrates antitumor effect of single-dose treatment with ^125I-125-NM404 at doses of 50 (⊚), 150 (□), 250 (⋄) and 500 (∘) μCi in SCID mice bearing A549 human non-small cell lung cancer xenografts. In this figure, control animals show rapidly growing tumors over the 10-week assessment period.
FIG. 2 summarizes investigations into the efficacy of ^125I-NM404 treatment. These investigations provided assessments of tumor volume were made until 10 weeks post-injection or until no animal in the control group is alive, whatever came first. Summarizing the results, control animals show rapidly growing tumors over the 10-week assessment period. […] Tumor volumes are stable and same tumors appear “collapsed” (the tumor surface has caved in). Additionally, FIG. 3 illustrates that hair above the tumors fell off confirming substantial accumulation of radioactivity in these tumors.

C[N+](C)(C)CCOP(=O)([O-])OCCCCCCCCCCCCCCCCCCc1ccc([125I])cc1 [^125I-NM404]
effect on the tumor (appearance) (250 μCi, 4 weeks following injection): causes central necrosis
dose dependence of effect on tumor volume (doses 50-500 μCi): dose-linear effect
tumor therapy efficacy (following single injection and fractionated dosing): effective tumor therapy treatment
effect on tumor volume compared to control animals (single dose 50 μCi): did not show any difference
effect on tumor volume compared to control animals (single dose 250 μCi): substantial and prolonged treatment effect
effect on tumor volume compared to control animals (single dose 500 μCi): substantial and prolonged treatment effect
